Series [1] addresses T1, Mixed lineage kinase domain-like protein (Homo sapiens) (UniProt Q8NB16).
T1 sequence (whole entry): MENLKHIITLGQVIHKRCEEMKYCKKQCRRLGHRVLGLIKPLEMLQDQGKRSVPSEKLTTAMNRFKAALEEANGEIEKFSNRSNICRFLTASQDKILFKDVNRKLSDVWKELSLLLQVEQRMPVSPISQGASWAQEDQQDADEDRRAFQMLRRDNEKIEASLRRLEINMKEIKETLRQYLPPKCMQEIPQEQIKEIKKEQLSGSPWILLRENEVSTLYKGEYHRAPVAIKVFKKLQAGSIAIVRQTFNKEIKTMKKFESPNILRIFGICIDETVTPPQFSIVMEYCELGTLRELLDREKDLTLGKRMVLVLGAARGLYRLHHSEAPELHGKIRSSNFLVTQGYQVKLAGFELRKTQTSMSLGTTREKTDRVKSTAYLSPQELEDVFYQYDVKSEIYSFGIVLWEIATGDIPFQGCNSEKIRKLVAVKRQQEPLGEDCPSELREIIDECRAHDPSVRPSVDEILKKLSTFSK
The experiment in a line: Inhibition of MLKL phosphorylation in TSZ induced human HT-29 cells at 1 uM pretreated with compound followed by TSZ stimulation for 6 hrs by Western blot analysis. It counts as cell-based.

In series [2] the test system is Mus musculus. The experiment in a line: Anti-inflammatory activity against C57BL/6J mouse model of TNFalpha-induced systemic inflammatory response syndrome (SIRS) assessed as decrease in IL-1beta level in kidney at 1.25 to 5 mg/kg,po 2 hrs prior to mTNFalpha and z-VAD-FMK stimulation for 8 hrs by ELISA. It counts as functional, organism-based. The following applies: dose 1.25-5 mg/kg, time 10.0 hrs. (In general: In an ELISA, binding on a coated surface is turned into a signal by an enzyme label.)

For series [3], the target named is Receptor-interacting serine/threonine-protein kinase 3 (Homo sapiens, UniProt Q9Y572). The series can be described thus: Binding affinity to recombinant RIPK3 (unknown origin) assessed as dissociation constant incubated for 1 hr by KINOMEscanTM assay.
Sequence of Receptor-interacting serine/threonine-protein kinase 3 (Q9Y572 whole entry): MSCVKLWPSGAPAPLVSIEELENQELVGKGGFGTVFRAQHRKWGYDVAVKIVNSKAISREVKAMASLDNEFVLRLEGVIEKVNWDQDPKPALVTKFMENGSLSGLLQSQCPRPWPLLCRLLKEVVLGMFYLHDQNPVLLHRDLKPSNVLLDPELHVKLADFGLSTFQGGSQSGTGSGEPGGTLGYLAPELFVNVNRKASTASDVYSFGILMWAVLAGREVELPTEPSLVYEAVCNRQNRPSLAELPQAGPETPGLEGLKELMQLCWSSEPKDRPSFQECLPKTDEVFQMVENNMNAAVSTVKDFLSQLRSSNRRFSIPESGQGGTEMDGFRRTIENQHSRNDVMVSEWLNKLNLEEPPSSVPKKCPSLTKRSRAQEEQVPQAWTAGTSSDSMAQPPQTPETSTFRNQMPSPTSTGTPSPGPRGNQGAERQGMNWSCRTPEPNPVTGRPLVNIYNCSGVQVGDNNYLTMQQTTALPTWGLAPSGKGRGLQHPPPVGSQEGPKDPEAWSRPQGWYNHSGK
Series [4] has as its system Mus musculus. The experiment in a line: Anti-inflammatory activity against C57BL/6J mouse model of TNFalpha-induced systemic inflammatory response syndrome (SIRS) assessed as decrease in IL-1beta level in heart at 1.25 to 5 mg/kg,po 2 hrs prior to mTNFalpha and z-VAD-FMK stimulation for 8 hrs by ELISA. It counts as functional, organism-based. Particulars: dose 1.25-5 mg/kg, time 10.0 hrs.

Series [5] concerns the target T2, Receptor-interacting serine/threonine-protein kinase 1 (Homo sapiens) (UniProt Q13546).
T2 sequence (whole entry): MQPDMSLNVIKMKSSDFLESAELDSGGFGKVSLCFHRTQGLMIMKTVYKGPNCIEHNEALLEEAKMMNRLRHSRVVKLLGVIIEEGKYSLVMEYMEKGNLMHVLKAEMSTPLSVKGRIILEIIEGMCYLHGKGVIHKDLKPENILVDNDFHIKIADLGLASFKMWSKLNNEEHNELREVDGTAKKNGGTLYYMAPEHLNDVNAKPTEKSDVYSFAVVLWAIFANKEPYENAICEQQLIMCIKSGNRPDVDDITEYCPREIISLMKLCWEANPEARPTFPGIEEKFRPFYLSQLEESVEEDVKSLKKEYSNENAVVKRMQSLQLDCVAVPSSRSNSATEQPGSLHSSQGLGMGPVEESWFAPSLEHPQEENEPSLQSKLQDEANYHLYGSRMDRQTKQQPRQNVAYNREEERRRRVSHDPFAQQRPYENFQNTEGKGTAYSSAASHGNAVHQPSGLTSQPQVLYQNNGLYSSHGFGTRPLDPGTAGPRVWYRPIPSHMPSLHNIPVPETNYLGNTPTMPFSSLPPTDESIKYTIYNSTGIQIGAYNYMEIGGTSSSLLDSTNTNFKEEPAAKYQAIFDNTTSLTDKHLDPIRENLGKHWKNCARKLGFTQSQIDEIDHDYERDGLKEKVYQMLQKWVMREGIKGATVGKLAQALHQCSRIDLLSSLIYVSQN
The series can be described thus: Inhibition of RIPK1 phosphorylation in TSZ induced human HT-29 cells at 1 uM pretreated with compound followed by TSZ stimulation for 6 hrs by Western blot analysis. It is filed as cell-based.

Series [6] can be described thus: Metabolic stability in mouse liver mitochondria assessed as degradation rate at 4 micromol/L and measured upto 240 mins. It counts as ADME. Particulars: 4 h, 4 µM, dose 4 µmol/L.
Series [7] is described as follows: Acute toxicity in mouse assessed as pathological damage in liver at 100 to 200 mg/kg,IG and measured after 14 days by H and E staining based microscopy. Particulars: in vivo, po, 336 h, dose 100-200 mg/kg, time 14 day. It counts as organism-based.
Series [8] addresses T1, Mixed lineage kinase domain-like protein (Homo sapiens). The experiment in a line: Inhibition of MLKL phosphorylation in TSZ induced human HT-29 cells at 1 to 1000 nM pretreated with compound followed by TSZ stimulation for 6 hrs by Western blot analysis. It is filed as cell-based. Particulars: dose 1-1000 nM. Background: In western blotting, separated proteins are transferred to a membrane and probed.

In series [9] the test system is Mus musculus. The series can be described thus: Anti-inflammatory activity against C57BL/6J mouse model of TNFalpha-induced systemic inflammatory response syndrome (SIRS) assessed as increase in survival rate at 2.5 mg/kg,po 2 hrs prior to mTNFalpha and z-VAD-FMK stimulation and measured upto 24 hrs. It counts as functional. The following applies: time 26 hrs.
Series [10] is described as follows: Acute toxicity in mouse assessed as pathological damage in kidney at 100 to 200 mg/kg,IG and measured after 14 days by H and E staining based microscopy. It is filed as organism-based. The following applies: in vivo, po, 336 h, dose 100-200 mg/kg, time 14 day.
Series [11] relates to Mus musculus. The experiment in a line: Anti-inflammatory activity against C57BL/6J mouse model of TNFalpha-induced systemic inflammatory response syndrome (SIRS) assessed as decrease in IL-6 level in heart at 1.25 to 5 mg/kg,po 2 hrs prior to mTNFalpha and z-VAD-FMK stimulation for 8 hrs by ELISA. It is filed as functional, organism-based. Particulars: dose 1.25-5 mg/kg, time 10.0 hrs.

Series [12] relates to Mus musculus. The experiment in a line: Anti-inflammatory activity against C57BL/6J mouse model of TNFalpha-induced systemic inflammatory response syndrome (SIRS) assessed as decrease in serum IL-1beta level at 1.25 to 5 mg/kg,po 2 hrs prior to mTNFalpha and z-VAD-FMK stimulation for 8 hrs by ELISA. It is filed as functional, organism-based. The following applies: dose 1.25-5 mg/kg, time 10.0 hrs.

Series [13] can be described thus: Acute toxicity in mouse assessed as behavioral changes at 100 to 200 mg/kg,IG and measured upto 14 days. It is filed as organism-based. The following applies: in vivo, po, 336 h, dose 100-200 mg/kg, time < 14 day.
The next series concerns HT-29. The experiment in a line: Anti-necroptic activity against human HT-29 cells assessed as inhibition of TSZ (TNFalpha, Smac mimetic and z-VAD-FMK) induced necroptosis pretreated with compound followed by TSZ stimulation for 16 to 18 hrs by CellTiter-Glo Luminescent cell viability assay. It counts as functional, cell-based. In general terms: Cellular ATP, detected with luciferase, serves as a proxy for viable cell number.

For series [14], the system named is Mus musculus. The experiment in a line: Anti-inflammatory activity against C57BL/6J mouse model of TNFalpha-induced systemic inflammatory response syndrome (SIRS) assessed as decrease in IL-6 level in kidney at 1.25 to 5 mg/kg,po 2 hrs prior to mTNFalpha and z-VAD-FMK stimulation for 8 hrs by ELISA. Particulars: dose 1.25-5 mg/kg, time 10.0 hrs. It is filed as functional, organism-based.

Series [15] is described as follows: Acute toxicity in mouse assessed as increase in body weight at 100 to 200 mg/kg,IG and measured upto 14 days. It counts as organism-based. The following applies: in vivo, po, 336 h, dose 100-200 mg/kg, time < 14 day.
The test system of series [16] is Mus musculus. The series can be described thus: Anti-inflammatory activity against C57BL/6J mouse model of TNFalpha-induced systemic inflammatory response syndrome (SIRS) assessed as increase in body temperature at 2.5 mg/kg,po 2 hrs prior to mTNFalpha and z-VAD-FMK stimulation and measured upto 18 hrs by electric thermometer analysis. It is filed as functional, organism-based. Particulars: time 20.0 hrs.

Series [17] is described as follows: Acute toxicity in mouse assessed as pathological damage in heart at 100 to 200 mg/kg,IG and measured after 14 days by H and E staining based microscopy. It counts as organism-based. The following applies: in vivo, po, 336 h, dose 100-200 mg/kg, time 14 day.

As a reminder, the pKd is the negative decadic logarithm of the Kd, by convention in mol/L. For orientation: pEC50 means −log10 of the EC50, conventionally taken in molar units.

Structures are written as SMILES. pEC50, pKd: −log10 of the molar value. Activity calls are given as the source filed them. The rule behind the calls is not given here.

For the molecule `O=C(Cc1cccc(OC(F)(F)F)c1)Nc1cc(-c2ccc3nc(NC(=O)C4CC4)sc3c2)ccc1F`, the inhibition entry in series [1] and in series [5] was “Active” throughout. Also, the outcome with Mus musculus [2] and in the series with Mus musculus [4] was inactive. For the same molecule, in [3], the pKd is below 5.30. Further, the Stability result in [6] was “Stable”. The Activity entry is “Non-Toxic” in series [7]; “Non-Toxic” in series [10]; “Dose-Dependent Effect” in the series on Mus musculus [11]; “Non-Toxic” in [13]; “Dose-Dependent Effect” in the series with Mus musculus [14]; “Non-Toxic” in [15]. Besides, in [17], the Activity entry was “Non-Toxic”. Moreover, in [8], the inhibition entry is “Dose-Dependent Effect”. In the series with Mus musculus [9], the survival at 2.5 mg/kg is 80%. In addition, the outcome in the series on Mus musculus [12] and in the series on Mus musculus [16] was Active. Besides, the pEC50 in the series on HT-29 was 7.77.

The record behind these values is ChEMBL document CHEMBL5370665, “Insight from Linker Investigations: Discovery of a Novel Phenylbenzothiazole Necroptosis Inhibitor Targeting Receptor-Interacting Protein Kinase 1 (RIPK1) from a Phenoxybenzothiazole Compound with Dual RIPK1/3 Targeting Activity” (J Med Chem, 2023).
